Structures can show the parent of a compound that is named as a salt.
Assays:
[1] = tested on: Mice of SHK line; experiment: Prepulse inhibition of startle response in mice (Apomorphine); conditions: 1 mg/kg, intraperitoneally 60 minutes before the test
[2] = tested on: Serotoninergic 5-HT1B; experiment: competitive radioligand binding, Serotoninergic 5-HT1B; conditions: compound concentration of 1 μM
Method: (§1) Profiles of pharmacological activity of thieno-pyrrolo[3,2-c]pyridines of the general formula 1. Biological activity test of compounds of the general formula 1 was carried out in the setting of competitive radioligand binding [I. Okun, S. Tkachenko, A. Khvat, et al., Current Alzheimer Research, 7(2), 97-112 (2010)], using a wide range of therapeutic targets including G-protein coupled receptors (GPCR), ion channels and neuromediator transporters. The tested activity was determined by quantitative measurement of radio-labelled ligand displacement by tested compounds of the general formula 1 at their concentration of 1 μM.

[3] = tested on: Adrenergic α1A; experiment: competitive radioligand binding, Adrenergic α1A; conditions: compound concentration of 1 μM
Method: as §1

[4] = target: Dopaminergic D2S (Homo sapiens, UniProt P14416); experiment: competitive radioligand binding, Dopaminergic D2S; conditions: compound concentration of 1 μM
Method: as §1

[5] = target: Histaminergic H3 (Homo sapiens, UniProt Q9Y5N1); experiment: competitive radioligand binding, Histaminergic H3; conditions: compound concentration of 1 μM; in % (unit assumed)
Method: as §1

[6] = target: Serotoninergic 5-HT2A (Homo sapiens, UniProt P28223); experiment: competitive radioligand binding, Serotoninergic 5-HT2A; conditions: compound concentration of 1 μM
Method: as §1

[7] = target: Dopaminergic D3 (Homo sapiens, UniProt P35462); experiment: competitive radioligand binding, Dopaminergic D3; conditions: compound concentration of 1 μM
Method: as §1

[8] = target: Serotoninergic 5-HT7 (Homo sapiens, UniProt P34969); experiment: competitive radioligand binding, Serotoninergic 5-HT7; conditions: compound concentration of 1 μM
Method: as §1

[9] = target: Histaminergic H2 (Homo sapiens, UniProt P25021); experiment: competitive radioligand binding, Histaminergic H2; conditions: compound concentration of 1 μM
Method: as §1

[10] = target: Histaminergic H1 (Homo sapiens, UniProt P35367); experiment: competitive radioligand binding, Histaminergic H1; conditions: compound concentration of 1 μM
Method: as §1

[11] = target: T1, Serotoninergic 5-HT1A (Homo sapiens, UniProt P08908); experiment: competitive radioligand binding, Serotoninergic 5-HT1A; conditions: compound concentration of 1 μM
T1 sequence (P08908 1-422): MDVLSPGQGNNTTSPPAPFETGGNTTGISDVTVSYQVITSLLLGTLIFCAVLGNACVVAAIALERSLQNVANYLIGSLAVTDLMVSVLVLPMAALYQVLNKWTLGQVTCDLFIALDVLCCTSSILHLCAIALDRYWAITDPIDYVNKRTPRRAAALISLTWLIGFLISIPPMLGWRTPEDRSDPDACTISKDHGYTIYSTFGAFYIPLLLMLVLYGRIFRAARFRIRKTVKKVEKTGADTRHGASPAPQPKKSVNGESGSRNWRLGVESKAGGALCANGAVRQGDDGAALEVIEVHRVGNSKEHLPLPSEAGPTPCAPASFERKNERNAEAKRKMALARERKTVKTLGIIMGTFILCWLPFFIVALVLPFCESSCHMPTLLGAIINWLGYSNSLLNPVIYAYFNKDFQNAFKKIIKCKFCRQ
Method: as §1

[12] = target: Dopaminergic D1 (Homo sapiens, UniProt P21728); experiment: competitive radioligand binding, Dopaminergic D1; conditions: compound concentration of 1 μM
Method: as §1

[13] = target: Dopaminergic D2L (Homo sapiens, UniProt P14416); experiment: competitive radioligand binding, Dopaminergic D2L; conditions: compound concentration of 1 μM
Method: as §1

[14] = target: T2, Dopaminergic D4.2 (Homo sapiens, UniProt P21917, DEL265-296); experiment: competitive radioligand binding, Dopaminergic D4.2; conditions: compound concentration of 1 μM
T2 sequence (P21917 with tags, fused parts or gaps DEL265-296): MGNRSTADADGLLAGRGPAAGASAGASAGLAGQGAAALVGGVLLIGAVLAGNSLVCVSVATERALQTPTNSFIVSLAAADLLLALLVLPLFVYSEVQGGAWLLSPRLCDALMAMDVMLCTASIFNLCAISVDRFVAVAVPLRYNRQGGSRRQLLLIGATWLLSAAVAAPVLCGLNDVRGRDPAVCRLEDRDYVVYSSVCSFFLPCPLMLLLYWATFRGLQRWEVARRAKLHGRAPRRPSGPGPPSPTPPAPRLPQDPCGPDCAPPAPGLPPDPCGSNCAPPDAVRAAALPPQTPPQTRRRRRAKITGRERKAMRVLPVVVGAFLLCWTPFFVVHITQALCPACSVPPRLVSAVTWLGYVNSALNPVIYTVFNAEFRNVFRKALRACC
Method: as §1

[15] = target: Serotoninergic 5-HT2B (Homo sapiens, UniProt P41595); experiment: competitive radioligand binding, Serotoninergic 5-HT2B; conditions: compound concentration of 1 μM
Method: as §1

[16] = tested on: Therapeutic targets (Adrenergic, Dopaminergic, Histaminergic, Serotoninergic); experiment: Profiles of pharmacological activity in competitive radioligand binding (whole panel); conditions: 1 μM, grades not defined
Method: as §1

[17] = target: T3, Serotoninergic 5-HT2C (Homo sapiens, UniProt P28335); experiment: competitive radioligand binding, Serotoninergic 5-HT2C; conditions: compound concentration of 1 μM
T3 sequence (P28335 33-458): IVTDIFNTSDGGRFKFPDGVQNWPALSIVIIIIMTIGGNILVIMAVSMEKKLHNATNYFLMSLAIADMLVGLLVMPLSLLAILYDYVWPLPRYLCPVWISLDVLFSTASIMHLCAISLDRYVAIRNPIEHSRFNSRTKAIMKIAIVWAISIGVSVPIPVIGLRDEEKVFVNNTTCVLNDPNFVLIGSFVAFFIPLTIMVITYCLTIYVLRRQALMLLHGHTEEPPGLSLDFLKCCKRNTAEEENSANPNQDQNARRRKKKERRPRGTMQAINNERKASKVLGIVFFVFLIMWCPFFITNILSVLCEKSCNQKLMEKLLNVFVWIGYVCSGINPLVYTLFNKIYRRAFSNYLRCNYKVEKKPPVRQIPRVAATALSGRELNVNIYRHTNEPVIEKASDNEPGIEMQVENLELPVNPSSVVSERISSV
Method: as §1

[18] = target: T4, Adrenergic α1D (Homo sapiens, UniProt P25100); experiment: competitive radioligand binding, Adrenergic α1D; conditions: compound concentration of 1 μM
T4 sequence (P25100 1-572): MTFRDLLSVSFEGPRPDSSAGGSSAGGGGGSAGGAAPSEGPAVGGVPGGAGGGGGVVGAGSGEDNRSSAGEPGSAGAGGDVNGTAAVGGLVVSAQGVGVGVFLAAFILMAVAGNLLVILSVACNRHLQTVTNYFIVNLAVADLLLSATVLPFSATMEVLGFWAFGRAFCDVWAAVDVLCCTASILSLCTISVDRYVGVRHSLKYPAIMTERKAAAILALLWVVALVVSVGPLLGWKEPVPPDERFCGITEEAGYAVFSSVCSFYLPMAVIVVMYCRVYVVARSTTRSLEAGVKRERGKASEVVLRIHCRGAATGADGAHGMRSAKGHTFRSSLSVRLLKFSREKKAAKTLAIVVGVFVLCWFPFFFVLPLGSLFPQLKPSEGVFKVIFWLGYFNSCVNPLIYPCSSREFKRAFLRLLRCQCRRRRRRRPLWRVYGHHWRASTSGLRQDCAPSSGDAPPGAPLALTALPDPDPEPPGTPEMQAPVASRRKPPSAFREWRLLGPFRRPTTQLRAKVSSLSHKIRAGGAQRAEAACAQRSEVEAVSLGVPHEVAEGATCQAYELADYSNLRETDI
Method: as §1

[19] = target: Serotoninergic 5-HT6 (Homo sapiens, UniProt P50406); experiment: competitive radioligand binding, Serotoninergic 5-HT6; conditions: compound concentration of 1 μM
Method: as §1

[20] = target: T5, Adrenergic α2A (Homo sapiens, UniProt P08913); experiment: competitive radioligand binding, Adrenergic α2A; conditions: compound concentration of 1 μM
T5 sequence (P08913 1-465): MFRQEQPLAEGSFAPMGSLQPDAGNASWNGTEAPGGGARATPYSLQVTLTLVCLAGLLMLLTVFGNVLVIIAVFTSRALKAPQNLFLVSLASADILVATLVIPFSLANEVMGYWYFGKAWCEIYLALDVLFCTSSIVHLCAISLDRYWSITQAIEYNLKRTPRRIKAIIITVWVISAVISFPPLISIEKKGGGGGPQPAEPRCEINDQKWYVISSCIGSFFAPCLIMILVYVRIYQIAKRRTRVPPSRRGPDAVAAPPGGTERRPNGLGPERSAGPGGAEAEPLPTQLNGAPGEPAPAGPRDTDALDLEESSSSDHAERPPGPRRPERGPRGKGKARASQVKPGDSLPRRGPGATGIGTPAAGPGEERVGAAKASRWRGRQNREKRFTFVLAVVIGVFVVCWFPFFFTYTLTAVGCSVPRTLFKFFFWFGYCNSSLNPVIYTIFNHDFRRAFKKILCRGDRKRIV
Method: as §1

[21] = tested on: Adrenergic α1B; experiment: competitive radioligand binding, Adrenergic α1B; conditions: compound concentration of 1 μM
Method: as §1

Dopaminergic D2S, sequence (P14416 1-414 isoform P14416-2): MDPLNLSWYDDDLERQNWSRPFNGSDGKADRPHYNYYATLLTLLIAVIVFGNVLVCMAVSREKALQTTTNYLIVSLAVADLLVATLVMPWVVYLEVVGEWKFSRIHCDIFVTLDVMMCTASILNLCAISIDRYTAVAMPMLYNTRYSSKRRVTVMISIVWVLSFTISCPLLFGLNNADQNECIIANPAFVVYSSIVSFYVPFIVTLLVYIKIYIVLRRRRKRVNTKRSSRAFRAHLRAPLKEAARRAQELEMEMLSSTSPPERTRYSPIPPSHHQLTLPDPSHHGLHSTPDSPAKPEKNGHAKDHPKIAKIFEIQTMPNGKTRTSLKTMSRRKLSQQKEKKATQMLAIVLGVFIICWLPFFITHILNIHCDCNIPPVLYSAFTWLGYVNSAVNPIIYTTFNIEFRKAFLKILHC
Serotoninergic 5-HT7, sequence (P34969 whole entry): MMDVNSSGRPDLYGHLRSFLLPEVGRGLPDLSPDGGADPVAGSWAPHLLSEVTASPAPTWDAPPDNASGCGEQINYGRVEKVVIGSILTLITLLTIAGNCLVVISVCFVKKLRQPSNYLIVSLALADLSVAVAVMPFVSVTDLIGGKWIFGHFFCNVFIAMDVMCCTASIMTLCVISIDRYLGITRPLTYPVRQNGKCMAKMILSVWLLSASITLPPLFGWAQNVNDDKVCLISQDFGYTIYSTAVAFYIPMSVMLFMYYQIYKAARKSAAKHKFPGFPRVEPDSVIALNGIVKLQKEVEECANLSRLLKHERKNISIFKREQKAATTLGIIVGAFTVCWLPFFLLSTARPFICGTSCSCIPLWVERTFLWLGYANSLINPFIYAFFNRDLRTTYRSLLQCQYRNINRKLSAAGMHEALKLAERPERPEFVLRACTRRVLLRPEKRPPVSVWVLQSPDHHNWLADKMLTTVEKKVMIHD
Histaminergic H2, sequence (P25021 whole entry): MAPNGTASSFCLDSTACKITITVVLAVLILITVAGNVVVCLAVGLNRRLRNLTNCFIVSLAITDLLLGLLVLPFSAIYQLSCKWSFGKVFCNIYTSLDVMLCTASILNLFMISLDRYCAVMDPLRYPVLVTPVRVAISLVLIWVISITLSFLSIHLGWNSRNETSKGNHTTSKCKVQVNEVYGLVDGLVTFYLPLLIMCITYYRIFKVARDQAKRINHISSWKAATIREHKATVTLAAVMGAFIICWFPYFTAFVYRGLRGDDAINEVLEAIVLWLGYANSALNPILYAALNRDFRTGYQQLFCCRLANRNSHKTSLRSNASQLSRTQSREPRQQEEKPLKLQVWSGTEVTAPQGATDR
Serotoninergic 5-HT2B, sequence (P41595 whole entry): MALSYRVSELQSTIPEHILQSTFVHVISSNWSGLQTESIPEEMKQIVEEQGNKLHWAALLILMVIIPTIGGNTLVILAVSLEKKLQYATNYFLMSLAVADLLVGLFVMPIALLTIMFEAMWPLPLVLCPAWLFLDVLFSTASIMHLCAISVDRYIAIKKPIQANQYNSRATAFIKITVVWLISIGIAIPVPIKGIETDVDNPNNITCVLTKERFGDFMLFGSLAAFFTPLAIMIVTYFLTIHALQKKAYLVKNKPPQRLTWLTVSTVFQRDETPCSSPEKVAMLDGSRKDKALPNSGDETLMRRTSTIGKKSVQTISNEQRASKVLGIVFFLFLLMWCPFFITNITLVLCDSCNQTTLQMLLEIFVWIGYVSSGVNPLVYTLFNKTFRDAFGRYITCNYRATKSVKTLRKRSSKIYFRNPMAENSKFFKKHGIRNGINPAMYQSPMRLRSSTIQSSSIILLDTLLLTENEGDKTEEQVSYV
Dopaminergic D1, sequence (P21728 whole entry): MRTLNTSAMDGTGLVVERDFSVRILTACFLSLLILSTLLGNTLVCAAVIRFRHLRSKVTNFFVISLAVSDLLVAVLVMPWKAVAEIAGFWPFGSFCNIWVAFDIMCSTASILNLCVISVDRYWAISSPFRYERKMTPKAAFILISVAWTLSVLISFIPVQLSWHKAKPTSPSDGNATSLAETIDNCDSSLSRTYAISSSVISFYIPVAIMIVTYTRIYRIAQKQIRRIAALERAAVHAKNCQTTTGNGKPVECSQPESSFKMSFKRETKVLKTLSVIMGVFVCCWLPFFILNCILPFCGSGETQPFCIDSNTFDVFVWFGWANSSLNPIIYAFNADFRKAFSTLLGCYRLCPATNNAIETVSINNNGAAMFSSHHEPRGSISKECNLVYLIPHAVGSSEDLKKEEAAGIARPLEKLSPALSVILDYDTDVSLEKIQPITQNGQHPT
Dopaminergic D3, sequence (P35462 whole entry): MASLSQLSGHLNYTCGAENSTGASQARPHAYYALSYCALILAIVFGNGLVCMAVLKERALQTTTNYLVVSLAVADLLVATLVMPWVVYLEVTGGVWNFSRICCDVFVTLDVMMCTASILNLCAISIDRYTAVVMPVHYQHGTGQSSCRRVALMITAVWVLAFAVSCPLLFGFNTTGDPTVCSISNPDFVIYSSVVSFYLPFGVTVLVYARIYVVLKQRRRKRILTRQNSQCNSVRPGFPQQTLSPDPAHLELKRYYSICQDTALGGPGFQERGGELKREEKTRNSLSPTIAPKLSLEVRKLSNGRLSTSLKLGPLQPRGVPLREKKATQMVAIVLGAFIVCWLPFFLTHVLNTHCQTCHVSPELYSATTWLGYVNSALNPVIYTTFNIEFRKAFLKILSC
Serotoninergic 5-HT6, sequence (P50406 whole entry): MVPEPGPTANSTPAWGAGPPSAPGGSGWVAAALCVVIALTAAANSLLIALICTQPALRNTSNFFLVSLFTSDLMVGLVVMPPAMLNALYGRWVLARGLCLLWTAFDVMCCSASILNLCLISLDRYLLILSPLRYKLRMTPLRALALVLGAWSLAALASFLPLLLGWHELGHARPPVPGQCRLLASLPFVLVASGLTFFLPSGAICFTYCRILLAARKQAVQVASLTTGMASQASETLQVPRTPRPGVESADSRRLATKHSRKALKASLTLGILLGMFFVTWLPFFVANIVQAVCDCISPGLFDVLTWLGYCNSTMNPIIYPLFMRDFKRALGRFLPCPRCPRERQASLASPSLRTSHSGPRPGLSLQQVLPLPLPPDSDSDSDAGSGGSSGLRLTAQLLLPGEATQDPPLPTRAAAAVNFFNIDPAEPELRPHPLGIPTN
Serotoninergic 5-HT2A, sequence (P28223 whole entry): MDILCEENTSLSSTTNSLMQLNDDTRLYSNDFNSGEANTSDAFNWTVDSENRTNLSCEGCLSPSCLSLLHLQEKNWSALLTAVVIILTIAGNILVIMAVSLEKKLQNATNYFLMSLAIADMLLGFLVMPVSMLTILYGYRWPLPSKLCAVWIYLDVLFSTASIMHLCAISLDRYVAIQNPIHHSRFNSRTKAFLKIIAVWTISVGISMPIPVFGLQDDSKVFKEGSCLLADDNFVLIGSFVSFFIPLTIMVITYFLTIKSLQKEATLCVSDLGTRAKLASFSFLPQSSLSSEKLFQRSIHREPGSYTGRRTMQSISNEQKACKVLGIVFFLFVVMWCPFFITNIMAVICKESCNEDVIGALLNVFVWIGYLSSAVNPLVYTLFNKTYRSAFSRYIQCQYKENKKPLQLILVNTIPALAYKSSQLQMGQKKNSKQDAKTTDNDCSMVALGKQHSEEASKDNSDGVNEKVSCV
Histaminergic H3, sequence (Q9Y5N1 whole entry): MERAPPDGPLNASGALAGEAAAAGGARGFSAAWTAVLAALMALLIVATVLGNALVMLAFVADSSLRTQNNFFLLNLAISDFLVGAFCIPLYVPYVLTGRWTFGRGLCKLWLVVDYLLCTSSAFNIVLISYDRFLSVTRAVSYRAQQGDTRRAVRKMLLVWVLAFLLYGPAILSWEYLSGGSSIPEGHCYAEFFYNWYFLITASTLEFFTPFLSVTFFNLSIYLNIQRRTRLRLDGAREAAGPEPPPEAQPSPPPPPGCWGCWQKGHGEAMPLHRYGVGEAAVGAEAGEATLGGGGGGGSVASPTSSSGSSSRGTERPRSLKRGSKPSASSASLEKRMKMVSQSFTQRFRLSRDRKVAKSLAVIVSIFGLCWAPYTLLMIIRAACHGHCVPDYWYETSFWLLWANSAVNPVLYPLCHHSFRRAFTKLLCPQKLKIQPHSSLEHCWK
Dopaminergic D2L, sequence (P14416 whole entry): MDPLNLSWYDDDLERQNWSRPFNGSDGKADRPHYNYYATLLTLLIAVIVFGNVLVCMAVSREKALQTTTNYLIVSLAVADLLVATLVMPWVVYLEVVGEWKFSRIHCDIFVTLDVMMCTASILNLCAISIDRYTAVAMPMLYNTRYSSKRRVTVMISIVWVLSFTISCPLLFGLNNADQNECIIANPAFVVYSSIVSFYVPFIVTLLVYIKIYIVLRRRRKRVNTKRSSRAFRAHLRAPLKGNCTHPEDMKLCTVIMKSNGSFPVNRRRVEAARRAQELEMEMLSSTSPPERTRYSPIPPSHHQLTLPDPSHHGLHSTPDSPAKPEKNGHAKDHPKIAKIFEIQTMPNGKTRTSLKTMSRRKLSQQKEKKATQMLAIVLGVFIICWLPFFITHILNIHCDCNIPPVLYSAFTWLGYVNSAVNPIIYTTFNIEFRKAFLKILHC
Histaminergic H1, sequence (P35367 whole entry): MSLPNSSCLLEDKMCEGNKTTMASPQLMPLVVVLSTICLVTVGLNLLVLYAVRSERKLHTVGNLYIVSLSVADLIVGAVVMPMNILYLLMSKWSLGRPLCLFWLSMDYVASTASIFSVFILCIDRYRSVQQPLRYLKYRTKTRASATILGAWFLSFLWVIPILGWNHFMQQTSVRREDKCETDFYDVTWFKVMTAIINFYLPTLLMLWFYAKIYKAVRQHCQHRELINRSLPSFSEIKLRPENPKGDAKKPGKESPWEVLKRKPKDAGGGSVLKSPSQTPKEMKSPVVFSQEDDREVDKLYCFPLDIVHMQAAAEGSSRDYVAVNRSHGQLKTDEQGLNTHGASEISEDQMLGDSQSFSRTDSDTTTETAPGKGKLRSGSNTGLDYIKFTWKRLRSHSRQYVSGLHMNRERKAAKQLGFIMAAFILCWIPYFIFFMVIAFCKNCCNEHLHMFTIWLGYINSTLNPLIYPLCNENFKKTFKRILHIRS

| SMILES | radio-labelled ligand displacement, Serotoninergic 5-HT1B [2] [%] | radio-labelled ligand displacement, Adrenergic α1A [3] [%] | radio-labelled ligand displacement, Dopaminergic D2S [4] [%] | radio-labelled ligand displacement, Histaminergic H3 [5] | radio-labelled ligand displacement, Serotoninergic 5-HT2A [6] [%] | radio-labelled ligand displacement, Dopaminergic D3 [7] [%] | radio-labelled ligand displacement, Serotoninergic 5-HT7 [8] [%] | radio-labelled ligand displacement, Histaminergic H2 [9] [%] | radio-labelled ligand displacement, Histaminergic H1 [10] [%] | radio-labelled ligand displacement, Serotoninergic 5-HT1A [11] [%] | radio-labelled ligand displacement, Dopaminergic D1 [12] [%] | radio-labelled ligand displacement, Dopaminergic D2L [13] [%] | radio-labelled ligand displacement, Dopaminergic D4.2 [14] [%] | radio-labelled ligand displacement, Serotoninergic 5-HT2B [15] [%] | grade of the activity profile (poor / satisfactory / good) [16] | radio-labelled ligand displacement, Serotoninergic 5-HT2C [17] [%] | radio-labelled ligand displacement, Adrenergic α1D [18] [%] | radio-labelled ligand displacement, Serotoninergic 5-HT6 [19] [%] | radio-labelled ligand displacement, Adrenergic α2A [20] [%] | radio-labelled ligand displacement, Adrenergic α1B [21] [%] | further results |
| --- | --- | --- | --- | --- | --- | --- | --- | --- | --- | --- | --- | --- | --- | --- | --- | --- | --- | --- | --- | --- | --- |
| O=C(CCCN1CCC(O)(c2ccc(Cl)cc2)CC1)c1ccc(F)cc1 [Haloperidol, reference compound] |  |  |  |  |  |  |  |  |  |  |  |  |  |  |  |  |  |  |  |  | Antipsychotic activity: disturbance of prepulse inhibition of startle caused by Apomorphine [1]: prevented disturbance of prepulse inhibition of startle caused by Apomorphine |
| Cc1cc2c3c(n(CCc4ccc(Cl)cc4)c2s1)C(C)CN(C)C3 (stereo not shown) [3.6(4)•HCl, 2,5,7-trimethyl-8-(4-chlorophenethyl)-4,5,6,7-tetrahydro-5H-thieno[3′,2′:4,5]pyrrolo[3,2-c]pyridine] | 41 | 89 | 72 | 8 | 97 | 63 | 99 | 63 | 95 | 29 | 56 | 45 | 54 | 78 | good | 96 | 89 | 99 | 93 | 91 |  |
| Cc1ccc(CCCn2c3c(c4c(Cl)csc42)CN(C)CC3)cc1 [3.12(5)•HCl, 5-methyl-8-[(p-tolyl)propyl]-3-chloro-4,5,6,7-tetrahydro-5H-thieno[3′,2′:4,5]pyrrolo[3,2-c]pyridine] | 30 | 79 | 29 | −3 | 97 | 23 | 96 | 57 | 89 | 18 | 47 | 35 | 33 | 63 | good | 94 | 86 | 99 | 91 | 89 |  |
| Cc1csc2c1c1c(n2CCCc2ccccc2)CCN(C)C1 [3.12(1)•HCl] | 54 | 98 | 89 | 11 | 99 | 75 | 98 | 99 | 98 | 43 | 57 | 82 | 73 | 91 | good | 97 | 92 | 101 | 101 | 99 |  |

From patent US20130267551A1, “SUBSTITUTED HYDROGENATED THIENO-PYRROLO[3,2-C]PYRIDINE, LIGANDS, A PHARMACEUTICAL COMPOSITION AND A METHOD FOR USING THE ABOVE” (ALLA CHEM, LLC, priority 2010, published 2013)
